Test results from patent publication US11116760B2 (Gilead Sciences, Inc., priority 2018, dated 2021).
Blank lines part the entries; values can stand above or below the compound they belong to.

Biological target: α4β7 integrin (Homo sapiens (Human), UniProt P13612+P26010)
Assay: α4β7 Integrin Cell Capture Assay
Format: cell-based
[1] = RPMI8866 cells captured on MadCAM-1 extracellular domain-coated plate
[2] = Table 2, capture of α4β7 expressing RPM18866 cells on MadCAM-1 extracellular domain-coated plate
[3] = Table 1, capture of α4β7 expressing RPM18866 cells on MadCAM-1 extracellular domain-coated plate

α4β7 integrin, sequence (P13612 34-1032): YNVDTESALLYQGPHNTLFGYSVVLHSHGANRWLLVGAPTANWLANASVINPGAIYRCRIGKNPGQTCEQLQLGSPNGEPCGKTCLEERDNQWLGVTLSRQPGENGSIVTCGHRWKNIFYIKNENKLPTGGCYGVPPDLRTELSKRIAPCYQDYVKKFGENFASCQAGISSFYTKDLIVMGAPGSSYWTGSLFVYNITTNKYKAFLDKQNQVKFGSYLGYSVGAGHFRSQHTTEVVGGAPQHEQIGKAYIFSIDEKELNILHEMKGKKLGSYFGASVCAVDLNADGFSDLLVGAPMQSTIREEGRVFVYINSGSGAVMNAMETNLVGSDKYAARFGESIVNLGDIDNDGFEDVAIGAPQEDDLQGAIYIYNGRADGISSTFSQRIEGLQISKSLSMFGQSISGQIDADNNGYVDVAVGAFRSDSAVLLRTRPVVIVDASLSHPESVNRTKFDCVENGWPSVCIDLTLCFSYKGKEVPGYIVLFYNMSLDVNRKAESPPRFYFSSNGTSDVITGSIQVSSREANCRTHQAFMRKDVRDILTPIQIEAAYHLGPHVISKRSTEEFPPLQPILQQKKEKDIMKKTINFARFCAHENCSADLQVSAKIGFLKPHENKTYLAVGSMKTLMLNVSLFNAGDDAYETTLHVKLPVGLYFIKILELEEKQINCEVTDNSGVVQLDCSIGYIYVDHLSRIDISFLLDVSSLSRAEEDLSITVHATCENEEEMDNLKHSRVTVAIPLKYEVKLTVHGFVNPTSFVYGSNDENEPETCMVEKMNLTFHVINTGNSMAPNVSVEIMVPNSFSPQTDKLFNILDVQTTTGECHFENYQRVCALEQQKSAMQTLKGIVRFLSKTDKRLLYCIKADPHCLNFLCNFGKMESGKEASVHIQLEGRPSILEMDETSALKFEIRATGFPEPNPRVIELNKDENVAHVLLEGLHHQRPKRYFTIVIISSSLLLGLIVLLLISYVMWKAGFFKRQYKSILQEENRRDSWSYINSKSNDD
α4β7 integrin, sequence (P26010 20-798): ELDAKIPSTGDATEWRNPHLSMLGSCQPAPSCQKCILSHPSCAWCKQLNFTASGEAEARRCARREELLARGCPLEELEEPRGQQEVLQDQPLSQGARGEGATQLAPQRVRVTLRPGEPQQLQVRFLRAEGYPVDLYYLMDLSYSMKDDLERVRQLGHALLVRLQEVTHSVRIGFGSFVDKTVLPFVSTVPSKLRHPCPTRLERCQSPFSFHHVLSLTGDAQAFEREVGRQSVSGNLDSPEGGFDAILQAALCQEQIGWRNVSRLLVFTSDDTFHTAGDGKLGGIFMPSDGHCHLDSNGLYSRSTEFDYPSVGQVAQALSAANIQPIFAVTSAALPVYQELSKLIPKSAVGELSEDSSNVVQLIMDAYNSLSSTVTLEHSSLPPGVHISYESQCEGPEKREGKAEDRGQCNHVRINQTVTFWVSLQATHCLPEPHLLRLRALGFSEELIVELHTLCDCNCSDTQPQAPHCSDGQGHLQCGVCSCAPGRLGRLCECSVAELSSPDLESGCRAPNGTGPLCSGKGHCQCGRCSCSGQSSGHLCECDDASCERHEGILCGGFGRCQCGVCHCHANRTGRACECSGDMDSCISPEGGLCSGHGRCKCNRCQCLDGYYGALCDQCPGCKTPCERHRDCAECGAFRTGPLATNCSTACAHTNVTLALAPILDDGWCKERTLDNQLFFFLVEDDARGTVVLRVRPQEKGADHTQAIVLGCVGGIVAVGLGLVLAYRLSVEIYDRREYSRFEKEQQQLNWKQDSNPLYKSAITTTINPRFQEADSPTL

EC50 [1]: 0.412 nM
SMILES: Cc1cc(C(F)(F)F)c(-c2ccc(C[C@H](NC(=O)c3c(F)cc(N4CCCOCC4)cc3F)C(=O)O)c3cccnc23)c(=O)n1C [Example 441]

EC50 [1]: 0.196 nM
SMILES: Cn1c(=O)n(-c2ccc(C[C@H](NC(=O)c3c(F)cc(N4CCOC[C@@H]4C(F)(F)F)cc3F)C(=O)O)c3cccnc23)c(=O)c2cnccc21 [Example 473]

EC50 [2]: 3.1 nM
SMILES: CC[C@@H](Nc1cc(F)c(C(=O)N[C@@H](Cc2ccc(-c3nccc(C)c3C(F)(F)F)c3ncccc23)C(=O)O)c(F)c1)C(F)(F)F [Example 252]

EC50 [1]: 0.544 nM
SMILES: Cc1cc(C(F)(F)F)c(-c2ccc(C[C@H](NC(=O)c3c(F)cc(N4C[C@H]5C[C@H]5[C@@H]4C(F)(F)F)cc3F)C(=O)O)c3cccnc23)c(=O)n1C [Example 483]

EC50 [3]: 11.2 nM
SMILES: COc1cc(C)nc(-c2ccc(C[C@H](NC(=O)c3c(F)cc(N4CCOC[C@@H]4C(F)(F)F)cc3F)C(=O)O)c3cccnc23)n1 [Example 99, (S)-2-(2,6-difluoro-4-((R)-3-(trifluoromethyl)morpholino)benzamido)-3-(8-(4-methoxy-6-methylpyrimidin-2-yl)quinolin-5-yl)propanoic acid]

EC50 [1]: 1.02 nM
SMILES: Cc1cc(N2CCOC[C@@H]2C(F)(F)F)cc(F)c1C(=O)N[C@@H](Cc1ccc(-c2cc(N(C)C)c(C)n(C)c2=O)c2ncccc12)C(=O)O [Example 450]

EC50 [1]: 0.205 nM
SMILES: Cc1cc(C(F)(F)F)c(-c2ccc(C[C@H](NC(=O)c3c(F)cc(N4CCOC[C@@H]4C(F)(F)F)cc3C3CC3)C(=O)O)c3cccnc23)c(=O)n1C [Example 463]

EC50 [2]: 37.1 nM
SMILES: COCCNC(=O)c1cc(F)c(C(=O)N[C@@H](Cc2ccc(-c3ccc(C#N)cc3Cl)c3ncccc23)C(=O)O)c(F)c1 [Example 178]

EC50 [2]: 8.4 nM
SMILES: CC[C@@H](Nc1cc(F)c(C(=O)N[C@@H](Cc2ccc(-c3nccc(C)c3N(C)C)c3ncccc23)C(=O)O)c(F)c1)C(F)(F)F [Example 300]

EC50 [1]: 0.233 nM
SMILES: Cc1cc(C(F)(F)F)c(-c2ccc(C[C@H](NC(=O)c3c(F)cc(N4CCC[C@@H]4C(F)(F)F)cc3F)C(=O)O)c3cccnc23)c(=O)n1C (atropisomer, axis not shown) [Example 485]

SMILES: N#CCc1ccc(-c2ccc(C[C@H](NC(=O)c3c(F)cc(NS(=O)(=O)c4ccc(-c5ccnc(F)c5)cc4)cc3F)C(=O)O)c3cccnc23)c(Cl)c1 [Example 53, (S)-3-(8-(2-chloro-4-(cyanomethyl)phenyl)quinolin-5-yl)-2-(2,6-difluoro-4-((4-(2-fluoropyridin-4-yl)phenyl)sulfonamido)benzamido)propanoic acid]
EC50 [3]: 3 nM

EC50 [2]: 45.2 nM
SMILES: N#Cc1ccc(-c2ccc(C[C@H](NC(=O)c3c(F)cc(N4CCC(F)(F)CC4)cc3F)C(=O)O)c3cccnc23)c(Cl)c1 [Example 220]

EC50 [3]: 0.3 nM
SMILES: CC[C@@H](Nc1cc(F)c(C(=O)N[C@@H](Cc2ccc(-c3c(C(F)(F)F)cc(C)n(C)c3=O)c3ncccc23)C(=O)O)c(F)c1)C(F)(F)F [Example 91, (S)-2-(2,6-difluoro-4-(((R)-1,1,1-trifluorobutan-2-yl)amino)benzamido)-3-(8-(1,6-dimethyl-2-oxo-4-(trifluoromethyl)-1,2-dihydropyridin-3-yl)quinolin-5-yl)propanoic acid]

EC50 [2]: 2.9 nM
SMILES: Cc1cc(C(F)(F)F)c(-c2ccc(C[C@H](NC(=O)c3c(F)cc(N4CC[C@@H]4C(F)(F)F)cc3F)C(=O)O)c3cccnc23)c(=O)n1C [Example 244]

SMILES: CCOCc1cc(OC)c(-c2ccc(CC(NC(=O)c3c(F)cccc3F)C(=O)O)c3ccc(C(F)(F)F)nc23)c(OC)c1 (stereo not drawn) [Example 38, 2-(2,6-difluorobenzamido)-3-(8-(4-(ethoxymethyl)-2,6-dimethoxyphenyl)-2-(trifluoromethyl)quinolin-5-yl)propanoic acid]
EC50 [3]: 29.7 nM

EC50 [2]: 0.3 nM
SMILES: Cn1c(C2CC2)cc(C(F)(F)F)c(-c2ccc(C[C@H](NC(=O)c3c(F)cc(N4CCOC[C@@H]4C(F)(F)F)cc3F)C(=O)O)c3cccnc23)c1=O [Example 158]

EC50 [2]: 11.2 nM
SMILES: O=C(N[C@@H](Cc1ccc(-c2ccc3c4c(ccnc24)CCO3)c2ncccc12)C(=O)O)c1c(F)cccc1F [Example 306]

EC50 [3]: 8.4 nM
SMILES: O=C(N[C@@H](Cc1ccc(-c2ccccc2C(F)(F)F)c2ncccc12)C(=O)O)c1c(F)cc(NS(=O)(=O)c2ccc(-c3ccnc(F)c3)cc2)cc1F [Example 65, (S)-2-(2,6-difluoro-4-((4-(2-fluoropyridin-4-yl)phenyl)sulfonamido)benzamido)-3-(8-(2-(trifluoromethyl)phenyl)quinolin-5-yl)propanoic acid]

EC50 [1]: 0.162 nM
SMILES: Cc1cc(N2CCOC[C@@H]2C(F)(F)F)cc(F)c1C(=O)N[C@@H](Cc1ccc(-n2c(=O)c3ccncc3n(C)c2=O)c2ncccc12)C(=O)O (single isomer, unassigned) [Example 407]

EC50 [2]: 22.9 nM
SMILES: N#Cc1ccc(-c2ccc(C[C@H](NC(=O)c3c(F)cc(N[C@H](c4ccc(F)cc4)C(F)(F)F)cc3F)C(=O)O)c3cccnc23)c(Cl)c1 [Example 331]

EC50 [2]: 9.6 nM
SMILES: N#Cc1cc(Cl)c(-c2ccc(C[C@H](NC(=O)c3c(Cl)cccc3Cl)C(=O)O)c3cc(F)cnc23)c(Cl)c1 [Example 304]

EC50 [1]: 0.25 nM
SMILES: Cc1nc(C)n(C)c(=O)c1-c1ccc(C[C@H](NC(=O)c2c(F)cc(N3CCOC[C@@H]3C(F)(F)F)cc2F)C(=O)O)c2cccnc12 [Example 440]

EC50 [3]: 0.2 nM
SMILES: Cc1cc(C(F)(F)F)c(-c2ccc(C[C@H](NC(=O)c3c(F)cc(N4CCOC[C@@H]4C(F)(F)F)cc3F)C(=O)O)c3cccnc23)c(=O)n1C [Example 96, (S)-2-(2,6-difluoro-4-((R)-3-(trifluoromethyl)morpholino)benzamido)-3-(8-(1,6-dimethyl-2-oxo-4-(trifluoromethyl)-1,2-dihydropyridin-3-yl)quinolin-5-yl)propanoic acid]

EC50 [3]: 0.4 nM
SMILES: Cc1cc(C(F)(F)F)c(-c2ccc(C[C@H](NC(=O)c3c(F)cc(N4CCO[C@H](C)[C@@H]4C(F)(F)F)cc3F)C(=O)O)c3cccnc23)c(=O)n1C [Example 137, (S)-2-(2,6-difluoro-4-((2R,3R)-2-methyl-3-(trifluoromethyl)morpholino)benzamido)-3-(8-(1,6-dimethyl-2-oxo-4-(trifluoromethyl)-1,2-dihydropyridin-3-yl)quinolin-5-yl)propanoic acid]

EC50 [2]: 63.4 nM
SMILES: N#Cc1ccc(-c2ccc(C[C@H](NC(=O)c3c(F)cc(C(=O)NC4CC4)cc3F)C(=O)O)c3cccnc23)c(Cl)c1 [Example 197]

EC50 [2]: 12.3 nM
SMILES: CC[C@@H](Nc1cc(F)c(C(=O)N[C@@H](Cc2ccc(-c3ncc4c(n3)CCC4)c3ncccc23)C(=O)O)c(F)c1)C(F)(F)F [Example 311]

EC50 [2]: 1.5 nM
SMILES: CC[C@@H](Nc1cc(F)c(C(=O)N[C@@H](Cc2ccc(-c3c(C)c(Cl)cn(C)c3=O)c3ncccc23)C(=O)O)c(F)c1)C(F)(F)F [Example 200]

EC50 [2]: 4.4 nM
SMILES: CC[C@@H](Nc1cc(F)c(C(=O)N[C@@H](Cc2ccc(-c3c(C(F)(F)F)cc(C)n(C)c3=O)c3nc(C(F)(F)F)ccc23)C(=O)O)c(F)c1)C(F)(F)F [Example 269]

EC50 [2]: 17.1 nM
SMILES: N#Cc1ccc(-c2ccc(C[C@H](NC(=O)c3c(Cl)cc4nc[nH]c4c3Cl)C(=O)O)c3cccnc23)c(Cl)c1 [Example 323]

EC50 [3]: 1.2 nM
SMILES: CC[C@@H](Nc1cc(F)c(C(=O)N[C@@H](Cc2ccc(-c3cc(Cl)c(C)n(C)c3=O)c3ncccc23)C(=O)O)c(F)c1)C(F)(F)F [Example 116, (S)-3-(8-(5-chloro-1,6-dimethyl-2-oxo-1,2-dihydropyridin-3-yl)quinolin-5-yl)-2-(2,6-difluoro-4-(((R)-1,1,1-trifluorobutan-2-yl)amino)benzamido)propanoic acid]
